Experimental data reported in PubChem BioAssay AID1963961 (Molecular Pharmacology Branch, DTP, NCI, 2024).

System: K98450-129-R-PDC multicell spheroids, viability
Assay: Anticancer human tumor K98450-129-R-PDC patient-derived colon adenocarcinoma cell line growth inhibition [PI3K]
Conditions: for IC50: curve of first compound; for viability, T/C: stronger effect = lower value
In short: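 Targeted small molecules plus PI3K inhibitors, half-log dose series from Cmax (default top 10 microM), were applied to heterotypic spheroids of cancer cells with HUVEC and MSCs. Viability indicated growth inhibition.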
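Further: spheroids exposed to agents for seven days before read-out.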

With CNC(=O)c1ccc(N2C(=S)N(c3ccc(C#N)c(C(F)(F)F)c3)C(=O)C2(C)C)cc1F + Cc1nc(NC(=O)N2CCCC2C(N)=O)sc1-c1ccnc(C(C)(C)C(F)(F)F)c1 the IC50 (second compound 0.0316 µM) was > 10 µM, the IC50 (second compound 0.1 µM) was > 10 µM and the IC50 (second compound 0.316 µM) was > 10 µM. The IC50 (second compound 1 µM) was > 10 µM, the IC50 (second compound 3.16 µM) was > 10 µM and the IC50 (second compound 10 µM) was > 10 µM. It also gave a viability, T/C (second compound 0.0316 µM, first compound 0.0316 µM) of 108%, a viability, T/C (second compound 0.0316 µM, first compound 0.1 µM) of 93% and a viability, T/C (second compound 0.0316 µM, first compound 0.316 µM) of 106%. The viability, T/C (second compound 0.0316 µM, first compound 1 µM) was 94.2%, the viability, T/C (second compound 0.0316 µM, first compound 3.16 µM) was 109% and the viability, T/C (second compound 0.0316 µM, first compound 10 µM) was 111%. For the same molecule, the viability, T/C (second compound 0.1 µM, first compound 0.0316 µM) was 111%, the viability, T/C (second compound 0.1 µM, first compound 0.1 µM) was 92.2% and the viability, T/C (second compound 0.1 µM, first compound 0.316 µM) was 102%. The viability, T/C (second compound 0.1 µM, first compound 1 µM) was 89.2%, the viability, T/C (second compound 0.1 µM, first compound 3.16 µM) was 104% and the viability, T/C (second compound 0.1 µM, first compound 10 µM) was 109%. The viability, T/C (second compound 0.316 µM, first compound 0.0316 µM) was 97%, the viability, T/C (second compound 0.316 µM, first compound 0.1 µM) was 96.2% and the viability, T/C (second compound 0.316 µM, first compound 0.316 µM) was 94.8%. It also gave a viability, T/C (second compound 0.316 µM, first compound 1 µM) of 97.3%, a viability, T/C (second compound 0.316 µM, first compound 3.16 µM) of 105% and a viability, T/C (second compound 0.316 µM, first compound 10 µM) of 109%. The viability, T/C (second compound 1 µM, first compound 0.0316 µM) was 90.5%, the viability, T/C (second compound 1 µM, first compound 0.1 µM) was 91.2% and the viability, T/C (second compound 1 µM, first compound 0.316 µM) was 87.5%. The viability, T/C (second compound 1 µM, first compound 1 µM) was 91.4%, the viability, T/C (second compound 1 µM, first compound 3.16 µM) was 101% and the viability, T/C (second compound 1 µM, first compound 10 µM) was 99%. The viability, T/C (second compound 3.16 µM, first compound 0.0316 µM) was 81.1%, the viability, T/C (second compound 3.16 µM, first compound 0.1 µM) was 88.2% and the viability, T/C (second compound 3.16 µM, first compound 0.316 µM) was 87.1%. It also gave a viability, T/C (second compound 3.16 µM, first compound 1 µM) of 81.8%, a viability, T/C (second compound 3.16 µM, first compound 3.16 µM) of 92% and a viability, T/C (second compound 3.16 µM, first compound 10 µM) of 83.7%. The viability, T/C (second compound 10 µM, first compound 0.0316 µM) was 70.2%, the viability, T/C (second compound 10 µM, first compound 0.1 µM) was 69.2% and the viability, T/C (second compound 10 µM, first compound 0.316 µM) was 74.7%. The viability, T/C (second compound 10 µM, first compound 1 µM) was 71.1%, the viability, T/C (second compound 10 µM, first compound 3.16 µM) was 79% and the viability, T/C (second compound 10 µM, first compound 10 µM) was 73.5%.
